The source of these data is patent publication US7659263B2, “Thienopyrrole compound and use thereof as HCV polymerase inhibitor” (Japan Tobacco Inc., priority 2004, dated 2010).

Experiment [1] deals with T1, NS5B 1a (Hepatitis C virus genotype 1a, UniProt P27958).
T1 construct: NS5B 1a
Nature of the experiment: Assay of enzyme (HCV polymerase) inhibitory activity, NS5B 1a. In kind it is biochemical. The following applies: HCV polymerase NS5B 1a; [3H]UTP incorporation, 25° C., 90 min.

The target of experiment [2] is T2, NS5B 1b (Hepatitis C virus genotype 1b, UniProt P26663).
T2 construct: a region encoding NS5B (J Virol 1991 March, 65(3), 1105-13, 544 amino acids after deletion of 47 amino acids on the C-terminal); 6 His (C); made in house; host or cells: Escherichia coli
T2 sequence (P26663 2420-2963): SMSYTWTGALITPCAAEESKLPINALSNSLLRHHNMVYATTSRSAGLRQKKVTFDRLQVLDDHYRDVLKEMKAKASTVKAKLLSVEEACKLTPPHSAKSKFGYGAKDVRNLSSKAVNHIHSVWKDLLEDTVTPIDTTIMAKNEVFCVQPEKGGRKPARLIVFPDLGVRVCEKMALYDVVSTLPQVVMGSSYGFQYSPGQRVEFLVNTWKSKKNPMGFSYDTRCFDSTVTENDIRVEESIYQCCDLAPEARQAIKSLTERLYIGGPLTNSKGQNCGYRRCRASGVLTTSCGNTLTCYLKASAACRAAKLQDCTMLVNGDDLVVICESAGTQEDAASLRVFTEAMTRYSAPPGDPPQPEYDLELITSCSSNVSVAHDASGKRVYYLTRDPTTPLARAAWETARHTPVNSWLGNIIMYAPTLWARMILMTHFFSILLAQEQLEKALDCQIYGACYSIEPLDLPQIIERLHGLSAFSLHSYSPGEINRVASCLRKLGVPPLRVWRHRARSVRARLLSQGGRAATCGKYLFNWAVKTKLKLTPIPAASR
The experiment in a line: Assay of enzyme (HCV polymerase) inhibitory activity, NS5B 1b. The format is biochemical. From the text: The evaluation of the HCV polymerase inhibitory activity of the compound of the present invention is explained in the following. This polymerase is an enzyme coded for by the non-structural protein region called NS5B on the genome RNA of HCV (EMBO J., 15:12-22, 1996).
i) Preparation of enzyme (HCV polymerase)
Using, as a template, a cDNA clone corresponding to the full length genome RNA of HCV BK strain obtained from the blood of a patient with hepatitis C, a region encoding NS5B (J Virol 1991 March, 65(3), 1105-13, 544 amino acids after deletion of 47 amino acids on the C-terminal) was amplified by PCR. The objective gene was prepared by adding a 6 His tag {base pair encoding 6 continuous histidine (His)} to the 3′ end thereof and transformed to Escherichia coli. The Escherichia coli capable of producing the objective protein was cultured. The obtained cells were suspended in a buffer solution and crushed in a microfluidizer. The supernatant was obtained by centrifugation and applied to various column chromatographys {mono-S, Sephacryl S-200 (Pharmacia)}, inclusive of metal chelate chromatography, to give a standard enzyme product.
ii) Synthesis of Substrate RNA
Using a synthetic primer designed based on the sequence of HCV genomic 3′ untranslated region, a DNA fragment (148 bp) containing polyU and 3′X sequence was entirely synthesized and cloned into plasmid pBluescript SK II(+) (Stratagene). The cDNA encoding full length NS5B, which was prepared in i) above, was digested with restriction enzyme KpnI to give a cDNA fragment containing the nucleotide sequence of from the restriction enzyme cleavage site to the termination codon. This cDNA fragment was inserted into the upstream of 3′ untranslated region of the DNA in pBluescript SK II(+) and ligated. The about 450 bp inserted DNA sequence was used as a template in the preparation of substrate RNA. This plasmid was cleaved immediately after the 3′X sequence, linearized and purified by phenol-chloroform treatment and ethanol precipitation to give DNA.
RNA was synthesized (37° C., 3 hr) by run-off method using this purified DNA as a template, a promoter of pBluescript SK II(+), MEGAscript RNA synthesis kit (Ambion) and T7 RNA polymerase. DNase I was added and the mixture was incubated for 1 hr. The template DNA was removed by decomposition to give a crude RNA product. This crude product was treated with phenol-chloroform and purified by ethanol precipitation to give the objective substrate RNA.
This RNA was applied to formaldehyde denaturation agarose gel electrophoresis to confirm the quality thereof and preserved at −80° C. iii) Assay of enzyme (HCV polymerase) inhibitory activity A test substance (compound of the present invention) and a reaction mixture (30 μl) having the following composition were reacted at 25° C. for 90 min.
10% Trichloroacetic acid at 4° C. and 1% sodium pyrophosphate solution (150 μl) were added to this reaction mixture to stop the reaction. The reaction mixture was left standing in ice for 15 min to insolubilize RNA. This RNA was trapped on a glass filter (Whatman GF/C and the like) upon filtration by suction. This filter was washed with a solution containing 1% trichloroacetic acid and 0.1% sodium pyrophosphate, washed with 90% ethanol and dried. A liquid scintillation cocktail (Packard) was added and the radioactivity of RNA synthesized by the enzyme reaction was measured on a liquid scintillation counter.
The HCV polymerase inhibitory activity (IC50) of the compound of the present invention was calculated from the values of radioactivity of the enzyme reaction with and without the 20 test substance. […]

SMILES strings stand for the structures. Where a name gives a salt, the structure may show the parent alone. Some results are limits rather than exact numbers.

T1 sequence (P27958 2421-3011): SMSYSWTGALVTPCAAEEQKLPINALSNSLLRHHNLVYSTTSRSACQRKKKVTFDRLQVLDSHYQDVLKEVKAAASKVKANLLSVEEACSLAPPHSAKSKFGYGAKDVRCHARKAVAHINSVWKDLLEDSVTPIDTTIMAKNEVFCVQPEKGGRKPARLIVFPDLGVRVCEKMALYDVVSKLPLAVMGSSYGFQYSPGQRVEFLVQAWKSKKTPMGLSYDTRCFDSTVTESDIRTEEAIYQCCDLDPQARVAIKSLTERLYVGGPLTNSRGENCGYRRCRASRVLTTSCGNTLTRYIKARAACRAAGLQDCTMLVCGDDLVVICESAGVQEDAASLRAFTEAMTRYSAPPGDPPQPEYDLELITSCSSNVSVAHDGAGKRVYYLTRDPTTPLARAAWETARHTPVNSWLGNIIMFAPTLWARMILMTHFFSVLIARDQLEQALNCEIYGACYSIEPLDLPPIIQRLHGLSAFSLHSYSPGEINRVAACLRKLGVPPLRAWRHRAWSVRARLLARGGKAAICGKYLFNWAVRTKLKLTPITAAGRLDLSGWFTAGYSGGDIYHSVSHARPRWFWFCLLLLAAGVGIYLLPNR

Turning to `Cc1ccc2c(c1)N(C)CCn1c-2c(C2CCCCC2)c2sc(C(=O)NC3(C(=O)Nc4ccc(/C=C/C(=O)O)cc4)CCC3)cc21` [Example 38, (E)-3-[4-({1-[(11-cyclohexyl-6,8-dimethyl-5,6-dihydro-4H-1-thia-3b,6-diazabenzo[e]cyclopenta[a]azulene-2-carbonyl)amino]cyclobutanecarbonyl)amino)phenyl]acrylic acid], the half-maximal inhibitory concentration (IC50) in experiment [1] and in experiment [2] was 10 to 100 nM in each case.
In the case of `CN1CCn2c(c(C3CCCCC3)c3sc(C(=O)NC4(C(=O)Nc5ccc(/C=C/C(=O)O)cc5)CCC4)cc32)-c2ccc(Cl)cc21` [Example 39, (E)-3-[4-({1-[(8-chloro-11-cyclohexyl-6-methyl-5,6-dihydro-4H-1-thia-3b,6-diazabenzo[e]cyclopenta[a]azulene-2-carbonyl)amino]cyclobutanecarbonyl}amino)phenyl]acrylic acid], the IC50 in experiment [1] and in experiment [2] was 10 to 100 nM each time.
As for `COc1ccc2c(c1)OCCn1c-2c(C2CCCCC2)c2sc(C(=O)NC3(C(=O)Nc4cccc(/C=C/C(=O)O)c4)CCC3)cc21` [Example 40, (E)-3-[3-({1-[(11-cyclohexyl-8-methoxy-4,5-dihydro-6-oxa-1-thia-3b-azabenzo[e]cyclopenta[a]azulene-2-carbonyl)amino]cyclobutanecarbonyl}amino)phenyl]acrylic acid], the IC50 in experiment [1] and in experiment [2] was 10 to 100 nM each time.
As for `CCOc1ccc2c(c1)OCCn1c-2c(C2CCCCC2)c2sc(C(=O)O)cc21` [Example 41, 11-cyclohexyl-8-ethoxy-4,5-dihydro-6-oxa-1-thia-3b-azabenzo[e]cyclopenta[a]azulene-2-carboxylic acid], the IC50 in experiment [1] and in experiment [2] was 10 to 100 nM throughout.
Take `O=C(O)c1cc2c(s1)c(C1CCCCC1)c1n2CCOc2c-1cccc2N(CCN1CCCCC1)CCN1CCCCC1` [Example 42, 7-{bis[2-(piperidin-1-yl)ethyl]amino}-11-cyclohexyl-4,5-dihydro-6-oxa-1-thia-3b-azabenzo[e]cyclopenta[a]azulene-2-carboxylic acid trihydrochloride]: the IC50 (commonly the concentration at which inhibition is half-maximal) in experiment [1] was 10 to 100 nM; in experiment [2] it was less than 10 nM.
In the same order, the values of `CCOc1ccc2c(c1)OCCn1c-2c(C2CCCCC2)c2sc(C(=O)NC3(C(=O)Nc4ccc(/C=C/C(=O)O)cc4)CCC3)cc21` [Example 43, (E)-3-[4-({1-[(11-cyclohexyl-8-ethoxy-4,5-dihydro-6-oxa-1-thia-3b-azabenzo[e]cyclopenta[a]azulene-2-carbonyl)amino]cyclobutanecarbonyl}amino)phenyl]acrylic acid] are 10 to 100 nM and 10 to 100 nM.
In the same order, the values of `CCOc1ccc2c(c1)N(C)CCn1c-2c(C2CCCCC2)c2sc(C(=O)O)cc21` [Example 44, 11-cyclohexyl-8-ethoxy-6-methyl-5,6-dihydro-4H-1-thia-3b,6-diazabenzo[e]cyclopenta[a]azulene-2-carboxylic acid] are 10 to 100 nM and 10 to 100 nM.
On to `CCOc1ccc2c(c1)N(C)CCn1c-2c(C2CCCCC2)c2sc(C(=O)NC3(C(=O)Nc4ccc(/C=C/C(=O)O)cc4)CCC3)cc21` [Example 45, (E)-3-[4-({1-[(11-cyclohexyl-8-ethoxy-6-methyl-5,6-dihydro-4H-1-thia-3b,6-diazabenzo[e]cyclopenta[a]azulene-2-carbonyl)amino]cyclobutanecarbonyl}amino)phenyl]acrylic acid], for which the concentration for half-maximal inhibition (IC50) in experiment [1] and in experiment [2] was 10 to 100 nM in each case.
On to `O=C(O)c1cc2c(s1)c(C1CCCCC1)c1n2CCOc2c-1cccc2N(CCN1CCOCC1)CCN1CCOCC1` [Example 46, 7-{bis[2-(morpholin-4-yl)ethyl]amino}-1l-cyclohexyl-4,5-dihydro-6-oxa-1-thia-3b-azabenzo[e]cyclopenta[a]azulene-2-carboxylic acid trihydrochloride], for which the IC50 in experiment [1] was 10 to 100 nM; in experiment [2], less than 10 nM.
